Consider two compounds from patent US10196401B2, “Spiro-lactam NMDA receptor modulators and uses thereof” (Aptinyx Inc., priority 2016, dated 2019).

Series [1] in a line: Microsomal stability, rat. The format is in vitro ADME. The protocol: Microsomal and plasma stability of Compound A was investigated. The following table indicates the percent of Compound A remaining after 60 minutes.
Microsomal and plasma stability of Compound B was investigated. The following table indicates the percent of Compound B remaining after 60 minutes.

The target of the next series is NMDAR2D (Homo sapiens, UniProt O15399). Nature of the series: Potentiation of [3H]MK-801 binding, NMDAR2D. Further details: species or system rat. The settings on record: for Conclusion / % 1 mM Glycine: NMDAR2D binding profile; for % 1 mM Glycine: relative to 1 mM glycine; for potentiation of [3H]MK-801 binding, subtype preference in words: NR2D, FIG. 2 / FIG. 6. The protocol: Assays were conducted as described by Moskal et al., “GLYX-13: a monoclonal antibody-derived peptide that acts as an N-rnethyl-D-aspartate receptor modulator,” Neuropharmacology, 49, 1077-87, 2005. The potentiation of [^3H]MK-801 binding (5 nrM; 22.5 Ci/mmol) to well washed rat cortical membranes (200 μg) was measured under non-equilibrium conditions (15 min @ 25° C.) in the presence of increasing concentrations of Compound A.
Assays were conducted as described above in Example 5, by Moskal et al. (2005).

Series [2] has as its system Sprague Dawley rats. The series is described as follows: Porsolt forced swim test. The format is in vivo, rat. Conditions: compared to vehicle group. The protocol: A non-clinical in vivo pharmacology study (Porsoit assay) was performed to measure antidepressant-like effects. A negative control (0.5% sodium carboxymethyl cellulose in 0.9% sterile saline vehicle) and a positive control (Compound D) were used to compare against Compound A and Compound B. The study allowed for the construction of a dose-response curve of the effects of each compound on the Porsolt forced swim test as assessed by the rats' response (reduced floating time) during a 5-minute swimming test.
Male 2-3 month old Sprague Dawley rats were used (Harlan, Indianapolis, Ind.). Rats were housed in Lucite cages with aspen wood chip bedding, maintained on a 12:12 light:dark cycle (lights on at 5 AM), and given ad libitum access to Purina lab chow (USA) and tap water throughout the study.
The Porsolt forced swim test adapted for use in rats was performed as described by Burgdorf et al., (The long-lasting antidepressant effects of rapastinel (GLYX-13) are associated with a metaplasticity process in the medial prefrontal cortex and hippocampus. Neuroscience 308:202-211, 2015). […] Animals were videotaped, and floating time as defined as the minimal amount of effort required to keep the animals head above water was scored offline by a blinded experimenter with high inter-rater reliability (Pearson's r>0.9). […]

Series [3] concerns Sprague Dawley rats. Nature of the series: Blast-induced traumatic brain injury/cognitive deficits measured by PEL. The format is in vivo, rat. Conditions: 10 mg/kg PO 1 h post-blast; PEL 48 hours post-blast. The source says: Single blast-induced traumatic brain injury/cognitive deficits were induced, modified for use in rats according to the protocol of Goldstein et al., “Chronic traumatic encephalopathy in blast-exposed military veterans and a blast neurotrauma mouse model,” Science Translational Medicine, Vol. 4, Issue 134, pp. 134ra60, 2012. Male 2-3 month old Sprague Dawley rats were used. Rats were housed in Lucite cages with aspen wood chip bedding, maintained on a 12:12 light:dark cycle (lights on at 5 AM), and given ad libitum access to Purina lab chow (USA) and tap water throughout the study. Rats were first anesthetized using 3.5-4% isoflurane, then the ears were protected with 1.5×1.5 mm foam plugs (Pura-Fit®, Moldex-Metric Inc., Culver City, Calif.), and the rat was placed into a head access rodent thoracic restrainer (Stoelting, USA) to protect the body while allowing the head to move freely. […]
PEL (Positive emotional learning) was conducted 48 hours post-blast. […] High frequency ultrasonic vocalizations (USVs) were recorded and analyzed by sonogram with Avasoft SASlab Pro (Germany) as previously described by Burgdorf et al., “Positive emotional learning is regulated in the medial prefrontal cortex by GluN2B-containing NMDA receptors,” Neuroscience, 192:515-523, 2011. Frequency raodulated 50-kH-z USVs that occurred during each the no-stimulation periods were quantified to measure PEL. […]

Series [4] can be described thus: Plasma protein binding, rat. The format is in vitro ADME. Conditions: read-out: plasma protein binding (% bound) (converted). The protocol: Unbound drug concentration in the brain was also investigated, and plasma protein binding assays were conducted. The following table (% bound) indicates results for Compound A.
Unbound drug concentration in the brain was also investigated, and plasma protein binding assays were conducted. The following table (% bound) indicates results for Compound B.

Sequence of NMDAR2D (O15399 28-1336, species assumed, other chains not shown): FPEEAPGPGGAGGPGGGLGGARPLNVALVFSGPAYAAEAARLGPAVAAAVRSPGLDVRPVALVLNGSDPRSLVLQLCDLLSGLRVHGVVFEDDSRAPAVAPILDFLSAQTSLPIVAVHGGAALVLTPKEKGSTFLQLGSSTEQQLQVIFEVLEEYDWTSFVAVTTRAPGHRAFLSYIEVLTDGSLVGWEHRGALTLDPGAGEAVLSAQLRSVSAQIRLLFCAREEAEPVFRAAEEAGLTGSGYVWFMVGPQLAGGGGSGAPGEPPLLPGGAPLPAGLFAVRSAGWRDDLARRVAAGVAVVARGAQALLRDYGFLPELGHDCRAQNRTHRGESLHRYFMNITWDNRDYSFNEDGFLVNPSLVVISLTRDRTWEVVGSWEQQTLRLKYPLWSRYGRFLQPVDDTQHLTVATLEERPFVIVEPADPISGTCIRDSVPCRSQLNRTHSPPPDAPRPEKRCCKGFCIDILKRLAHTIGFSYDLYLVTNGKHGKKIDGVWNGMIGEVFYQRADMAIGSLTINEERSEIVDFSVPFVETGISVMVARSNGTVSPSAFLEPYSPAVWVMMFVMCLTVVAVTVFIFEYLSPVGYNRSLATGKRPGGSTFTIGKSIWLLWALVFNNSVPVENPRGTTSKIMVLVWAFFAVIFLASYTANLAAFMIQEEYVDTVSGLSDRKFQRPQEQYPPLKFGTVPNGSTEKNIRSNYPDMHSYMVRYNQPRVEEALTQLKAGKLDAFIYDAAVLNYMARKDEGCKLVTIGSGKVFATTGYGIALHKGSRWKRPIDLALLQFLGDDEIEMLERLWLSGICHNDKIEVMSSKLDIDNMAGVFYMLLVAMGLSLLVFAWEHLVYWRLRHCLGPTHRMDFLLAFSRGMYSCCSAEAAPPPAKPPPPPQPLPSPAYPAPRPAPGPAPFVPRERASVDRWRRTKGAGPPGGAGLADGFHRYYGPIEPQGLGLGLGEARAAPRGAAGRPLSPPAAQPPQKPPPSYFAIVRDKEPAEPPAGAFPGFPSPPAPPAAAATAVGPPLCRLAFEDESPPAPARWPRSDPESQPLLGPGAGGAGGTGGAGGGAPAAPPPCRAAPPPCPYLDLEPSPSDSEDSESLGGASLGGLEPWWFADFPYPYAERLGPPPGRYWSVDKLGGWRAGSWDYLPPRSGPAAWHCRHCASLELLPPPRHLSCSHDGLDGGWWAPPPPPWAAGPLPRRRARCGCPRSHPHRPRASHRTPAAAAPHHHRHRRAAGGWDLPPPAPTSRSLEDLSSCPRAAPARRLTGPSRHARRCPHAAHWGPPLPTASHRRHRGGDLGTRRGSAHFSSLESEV

Take `CC(C)CN1CCC[C@]12CN([C@H](C(N)=O)[C@@H](C)O)C2=O` [Compound A, (2S,3R)-3-hydroxy-2-((R)-5-isobutyl-1-oxo-2,5-diazaspiro[3.4]octan-2-yl)butanamide]: in series [1], the “Microsomal stability, percent remaining after 60 minutes” value was 65%. Moreover, at NMDAR2D, the Conclusion result is reported as “WT2D no”; the “% 1 mM Glycine” value is listed as 0%; the “potentiation of [3H]MK-801 binding, subtype preference in words” value is recorded as “no binding to NR2D”. The “floating time in the Porsolt test (antidepressant-like effect)” value in the series on Sprague Dawley rats [2] (10-1000 μg/kg PO, 1 h post-dosing) was “produces an antidepressant-like effect”. For the same compound, in the series on Sprague Dawley rats [3], the “blast-induced cognitive deficits as measured by PEL” value is reported as “reversed blast-induced cognitive deficits”. In addition, the fraction unbound in series [4] is 0.701.
As to `CC(C)CN1CCC[C@@]12CN([C@H](C(N)=O)[C@@H](C)O)C2=O` [Compound B, (2S,3R)-3-hydroxy-2-((S)-5-isobutyl-1-oxo-2,5-diazaspiro[3.4]octan-2-yl)butanamide], the “Microsomal stability, percent remaining after 60 minutes” value in series [1] stood at 81%. Also, at NMDAR2D, the Conclusion entry is “agonist”; the “% 1 mM Glycine” value worked out at 66.21%; the “potentiation of [3H]MK-801 binding, subtype preference in words” value is “highly NR2B and NR2D preferring”. Further, the “floating time in the Porsolt test (antidepressant-like effect)” value with Sprague Dawley rats [2] (0.1-10 μi/kg PO, 1 hour post-dosing) was “produces an antidepressant-like effect”. The “blast-induced cognitive deficits as measured by PEL” value in the series with Sprague Dawley rats [3] is reported as “reversed blast-induced cognitive deficits”. Also, the fraction unbound in series [4] was 0.802.
